Source: PMC10821025, “Bioprospection of Tenellins Produced by the Entomopathogenic Fungus Beauveria neobassiana” (Journal of Fungi, 2024)
Converted amounts (≈) assume the structure as drawn. Read-outs that look alike come from different tables or passages of the source.

Experiments:
[1] = system: Bacillus subtilis [DSM 10]; experiment: Serial dilution assay (MIC); type: cell-based
Procedure: (§1) All isolated compounds were assessed for their antimicrobial activity using a serial dilution assay over a concentration range from 67 to 0.5 µg/mL following the previously described protocols. In brief, the antimicrobial activity of all isolated metabolites was assessed by determining their minimum inhibitory concentration (MIC) against a range of different pathogens, including five fungal species: Candida albicans [DSM 1665], Mucor hiemalis [DSM 2656], Schizosaccharomyces pombe [DSM 70572], Rhodotorula glutinis [DSM 10134], and Wickerhamomyces anomalus [DSM 6766], as well as various Gram-positive: Staphylococcus aureus [DSM 346], Bacillus subtilis [DSM 10], Mycolicibacterium smegmatis [ATCC 700084], and Gram-negative bacteria: Acinetobacter baumanii [DSM 30008], Escherichia coli [DSM 1116], Chromobacterium violaceum [DSM 30191], and Pseudomonas aeruginosa [PA14]. In our experiments, gentamicin served as the positive control against most bacteria, while nystatin acted as the positive control against all fungi. For specific microorganisms, namely A. baumannii, B. subtilis, and M. smegmatis, ciprofloxacin, oxytetracycline, and kanamycin were used as positive controls, respectively.

[2] = system: Mycolicibacterium smegmatis [ATCC 700084]; experiment: Serial dilution assay (MIC); type: cell-based; settings: for MIC: Mycolicibacterium smegmatis, ATCC700084
Procedure: as §1

[3] = system: mouse fibroblasts (L-929); experiment: Cytotoxicity assay, L929; type: cell-based; settings: L929 (fibroblast), 5 days of incubation
Procedure: (§2) The cytotoxicity of isolated compounds was determined as previously described over a concentration range between […] against two mammalian cell lines: mouse fibroblasts (L-929) and human endocervical adenocarcinoma (KB-3.1). […] Following 5 days of incubation, we determined the minimum concentration of the tested compounds required to achieve 50% growth inhibition, expressed as IC50 values.

[4] = system: human endocervical adenocarcinoma (KB-3.1); experiment: Cytotoxicity assay, KB3.1; type: cell-based; settings: 5 days of incubation
Procedure: as §2

[5] = system: Candida albicans [DSM 1665]; experiment: Serial dilution assay (MIC); type: cell-based
Procedure: as §1

[6] = system: Chromobacterium violaceum [DSM 30191]; experiment: Serial dilution assay (MIC); type: cell-based
Procedure: as §1

[7] = system: Escherichia coli [DSM 1116]; experiment: Serial dilution assay (MIC); type: cell-based
Procedure: as §1

[8] = system: Mucor hiemalis [DSM 2656]; experiment: Serial dilution assay (MIC); type: cell-based
Procedure: as §1

[9] = system: Pseudomonas aeruginosa [PA14]; experiment: Serial dilution assay (MIC); type: cell-based
Procedure: as §1

[10] = system: Staphylococcus aureus [DSM 346]; experiment: Serial dilution assay (MIC); type: cell-based
Procedure: as §1

[11] = system: S. aureus (DSM 1104) biofilm formation; experiment: Biofilm inhibition assay (Crystal Violet staining); type: cell-based, Staphylococcus aureus; settings: for Biofilm inhibition (% ± SD): S. aureus (DSM 1104); for concentration below which biofilm inhibitory activity is lost: S. aureus biofilm, tested 125–7.8 µg/mL
Procedure: The compounds were evaluated for their ability to inhibit S. aureus (DSM 1104) biofilm formation, following the established procedure. Briefly, serially diluted compounds (125–7.8 µg/mL) were co-incubated with S. aureus in 96-well plates in CASO medium supplemented with 4% of glucose (see Supplementary Materials). Biofilm inhibition was assessed by using Crystal Violet staining after […], with microporenic acid A serving as a positive control and methanol as solvent control.
Biofilm inhibition assays were condu cted acco rding to th e methodolo g y previousl y described (Soliga et al., 2021), targeting the inhibition of biofilm formation in Staphylococcus aureus […]
S. aureus were cultured i n LB and CASO medium at 37 °C for 18 h, respect ivel y, in a shaker at 120 rpm after being thawed from a -20 °C stock solution. The culture's optical densit y at 600 nm (OD600) was measured and adjusted to a 0.1 McFarland standard in M63 minimal medium supplemented with necessar y nutrients and CASO medi um with 4% glucose for S. aureus, respectively. Microtiter plates were loaded with 150 µL of the bacterial suspension containing s eriall y diluted test compounds (7.8 -125 µg/m L) and incubated for 24 h at 37 °C. The evaluation of biofilm inhibition was performed by staining the biofilm with 0.1% cr ystal violet (CV). After staining, the plates were washed, and the biofilm dissolved in 95% ethanol. The absorbance of the dissolved biofilm was measured at 530 nm using a plat e reader. Negative control involved methanol (2.5%) while microporenic acid A at a concentration range of 7.8 to 125 µg/mL were used as the positive control for S. aureus (Chepkirui et al., 2018). All experiments were performed three times, and the standard deviation (SD) was maintained at or below 15% for S. aureus .
Differences between sam ples and the control grou p were determined b y a t wo-tailed Student’s t-test. Statistical significan ce was defined as p < 0.01. Anal ysis was carri ed out using GraphPad Prism 9® (GraphPad Software, San Diego, CA, USA). […]

[12] = system: lung cancer (A-549) cell line; experiment: Cytotoxicity assay, A549; type: cell-based; settings: Homo sapiens
[13] = system: breast cancer (MCF-7) cell line; experiment: Cytotoxicity assay, MCF-7; type: cell-based; settings: Homo sapiens, MCF7, 120 h
[14] = system: Acinetobacter baumanii [DSM 30008]; experiment: Serial dilution assay (MIC); type: cell-based; settings: Acinetobacter baumannii, DSM30008
Procedure: as §1

[15] = system: Rhodotorula glutinis [DSM 10134]; experiment: Serial dilution assay (MIC); type: cell-based
Procedure: as §1

[16] = system: Schizosaccharomyces pombe [DSM 70572]; experiment: Serial dilution assay (MIC); type: cell-based
Procedure: as §1

[17] = system: Wickerhamomyces anomalus [DSM 6766]; experiment: Serial dilution assay (MIC); type: cell-based
Procedure: as §1

[18] = Homo sapiens, KB 3-1, 120 h, KB3.1 (endocervical adenocarcinoma)
[19] = KB3.1 (endocervical adenocarcinoma)
[20] = Staphylococcus aureus, DSM1104, read-out: Biofilm inhibition (% ± SD), S. aureus (DSM 1104), 62.5 µg/ml
[21] = Staphylococcus aureus, DSM1104, read-out: Biofilm inhibition (% ± SD), S. aureus (DSM 1104), 125 µg/ml

SMILES: CN(C)[C@@H]1C(O)=C(C(N)=O)C(=O)[C@@]2(O)C(O)=C3C(=O)c4c(O)cccc4[C@@](C)(O)[C@H]3[C@H](O)[C@@H]12 [Oxytetracycline, reference compound]
- MIC ([1]; DSM10, read-out: MIC): 16.6 µg/mL (≈ 36.1 µM)

SMILES: NC[C@H]1O[C@H](O[C@H]2[C@H](O)[C@@H](O[C@H]3O[C@H](CO)[C@@H](O)[C@H](N)[C@H]3O)[C@H](N)C[C@@H]2N)[C@H](O)[C@@H](O)[C@@H]1O [Kanymycin, reference compound]
- MIC (µg/mL) ([2]; Mycobacterium smegmatis): 1.70 ^K µg/mL

SMILES: CCC(C)/C=C(C)/C=C/C(=O)c1c(O)c(-c2ccc(O)cc2)c[nH]c1=O (stereo not drawn) [Compound 3, Pretenellin B]
- IC50 (µM) [3]: weak or no activity
- IC50 ([3]; Mus musculus, L929, 120 h): 48.2 µM
- IC50 [4, 18]: 20.2 µM
- IC50 (µM) [4, 19]: weak or no activity
- MIC ([1]; DSM10): 66.6 µg/mL (≈ 188 µM)
- MIC ([5]; DSM1665): > 67 µg/mL
- MIC ([6]; DSM30191): > 67 µg/mL
- MIC ([7]; DSM1116): > 67 µg/mL
- MIC ([8]; DSM2656): > 67 µg/mL
- MIC [2]: > 67 µg/mL
- MIC [9]: > 67 µg/mL
- MIC ([10]; DSM346): 66.6 µg/mL (≈ 188 µM)
- inhibitory activity on S. aureus biofilm formation (in words) ([11]; 125–7.8 µg/mL): promising activities in a dose-dependent manner
- Biofilm inhibition (% ± SD) ([11]; 7.8 µg/ml, listed as pretenellin B (3)): ca. 30%
- inhibition at 7.8 µg/mL ([11]; Staphylococcus aureus, DSM1104, read-out: Biofilm inhibition (% ± SD), S. aureus (DSM 1104), 7.8 µg/ml): 37 ± 7%
- inhibition at 15.62 µg/mL ([11]; Staphylococcus aureus, DSM1104, read-out: Biofilm inhibition (% ± SD), S. aureus (DSM 1104), 15.62 µg/ml): 52 ± 6%
- inhibition at 31.25 µg/mL ([11]; Staphylococcus aureus, DSM1104, read-out: Biofilm inhibition (% ± SD), S. aureus (DSM 1104), 31.25 µg/ml): 79 ± 8%
- inhibition at 62.5 µg/mL [11, 20]: 83 ± 6%
- inhibition at 125 µg/mL [11, 21]: 83 ± 6%

SMILES: CCC(/C=C(C)/C=C/C(=O)c1c(O)c(-c2ccc(O)cc2)c[nH]c1=O)CO (stereo not drawn) [Compound 6, Pyridovericin]
- IC50 [3]: 5.7 µM
- IC50 ([3]; Mus musculus, L929, 120 h): 4.9 to 6.8 µM
- IC50 [4, 18]: 4.9 to 6.8 µM
- IC50 [4, 19]: 4.9 µM
- IC50 ([12]; 120 h, A549 (lung), 5 days of incubation, read-out: IC50): 24100 nM
- IC50 ([13]; MCF-7 (breast), 5 days of incubation, read-out: IC50): 7300 nM
- MIC ([1]; DSM10): 66.6 µg/mL (≈ 180 µM)
- MIC ([5]; DSM1665): > 67 µg/mL
- MIC ([7]; DSM1116): > 67 µg/mL
- MIC ([8]; DSM2656): > 67 µg/mL
- MIC [2]: > 67 µg/mL
- MIC [9]: > 67 µg/mL
- MIC ([10]; DSM346): 66.6 µg/mL (≈ 180 µM)
- concentration below which biofilm inhibitory activity is lost [11]: 62.5 µg/mL
- inhibition at 62.5 µg/mL [11, 20]: 48 ± 5%
- inhibition at 125 µg/mL [11, 21]: 64 ± 14%

SMILES: CNC(C)C1CCC(N)C(OC2C(N)CC(N)C(OC3OCC(C)(O)C(NC)C3O)C2O)O1 (stereo not drawn) [Gentamycin, reference compound]
- MIC ([6]; DSM30191, read-out: MIC): 1.7 µg/mL (≈ 3.56 µM)
- MIC ([7]; DSM1116, read-out: MIC): 0.42 µg/mL (≈ 0.879 µM)
- MIC ([9]; read-out: MIC): 0.21 µg/mL (≈ 0.44 µM)
- MIC ([10]; DSM346, read-out: MIC): 0.21 µg/mL (≈ 0.44 µM)

SMILES: C/C(=C\c1csc(C)n1)[C@@H]1C[C@@H]2O[C@]2(C)CCC[C@H](C)[C@H](O)[C@@H](C)C(=O)C(C)(C)[C@@H](O)CC(=O)O1 [Epothilone B, reference compound]
- IC50 ([12]; A549, 120 h, read-out: IC50, Positive Control Epothilone B (nM)): 0.05 nM
- IC50 ([13]; read-out: IC50, Positive Control Epothilone B (nM)): 0.07 nM

SMILES: CC(C)=CCC/C(C)=C/CC/C(C)=C/CC/C(C)=C/CO[C@@H](C(=O)O)[C@H](CC(=O)O)C(=O)O [Microporenic acid A, reference compound]
- Biofilm inhibition (% ± SD) ([11]; 7.8 µg/ml): 41 ± 9%
- Biofilm inhibition (% ± SD) ([11]; 15.62 µg/ml): 70 ± 13%
- Biofilm inhibition (% ± SD) ([11]; 31.25 µg/ml): 85 ± 1%
- Biofilm inhibition (% ± SD) ([11]; 62.5 µg/ml): 84 ± 1%
- Biofilm inhibition (% ± SD) ([11]; 125 µg/ml): 86 ± 0%

SMILES: O=C(O)c1cn(C2CC2)c2cc(N3CCNCC3)c(F)cc2c1=O [Ciprofloxacin, reference compound]
- MIC [14]: 0.52 µg/mL (≈ 1.57 µM)

SMILES: O=C(O)c1c(O)c(-c2ccc(O)cc2)cn(O)c1=O [Compound 1, Pretenellin C]
- IC50 (µM) ([3]; listed as pretenellin C (1)): weak or no activity
- IC50 ([3]; Mus musculus, L929, 120 h): > 37 µg/mL
- IC50 ([4]; Homo sapiens, KB 3-1, 120 h, KB3.1 (ovary)): > 37 µg/mL
- IC50 (µM) ([4]; KB3.1 (endocervical adenocarcinoma), listed as pretenellin C (1)): weak or no activity
- MIC ([1]; DSM10, read-out: MIC): > 67 µg/mL
- MIC ([5]; DSM1665, read-out: MIC): > 67 µg/mL
- MIC ([7]; DSM1116, read-out: MIC): > 67 µg/mL
- MIC ([8]; DSM2656, read-out: MIC): > 67 µg/mL
- MIC ([2]; Mycobacterium smegmatis, read-out: MIC): > 67 µg/mL
- MIC ([9]; read-out: MIC): > 67 µg/mL
- MIC ([10]; DSM346, read-out: MIC): > 67 µg/mL
- concentration below which biofilm inhibitory activity is lost [11]: 31.3 µg/mL
- inhibition at 31.25 µg/mL ([11]; Staphylococcus aureus, DSM1104, S. aureus (DSM 1104), 31.25 µg/ml, read-out: Biofilm inhibition (% ± SD)): 46 ± 9%
- inhibition at 62.5 µg/mL ([11]; Staphylococcus aureus, DSM1104, S. aureus (DSM 1104), 62.5 µg/ml, read-out: Biofilm inhibition (% ± SD)): 63 ± 16%
- inhibition at 125 µg/mL ([11]; Staphylococcus aureus, DSM1104, S. aureus (DSM 1104), 125 µg/ml, read-out: Biofilm inhibition (% ± SD)): 74 ± 5%

SMILES: C[C@@H]1[C@H](O)[C@@H](C)/C=C/C=C/CC/C=C/C=C/C=C/C=C/C(O[C@H]2O[C@H](C)[C@@H](O)[C@H](N)[C@@H]2O)CC2O[C@](O)(CC(O)C(O)CCC(O)CC(O)CC(O)CC(=O)O[C@H]1C)CC(O)C2C(=O)O (stereo partly drawn) [Nystatin, reference compound]
- MIC (µg/mL) [5]: 8.3 ^N µg/mL
- MIC (µg/mL) [8]: 8.30 ^N µg/mL
- MIC (µg/mL) [15]: 4.20 ^N µg/mL
- MIC (µg/mL) [16]: 4.20 ^N µg/mL
- MIC (µg/mL) [17]: 16.6 ^N µg/mL
